Read-outs that look alike come from different tables or passages of the source.
How the values were obtained:
Assay type in all cases: cell-based
HTT mRNA [1] = test: Splicing RT-qPCR assay (THP), Table 2A
MYB mRNA [2] = test: Splicing RT-qPCR assay (THP), Table 2A
[3] = test system: SH-SY5Y (human neuroblastoma) cells; test: Cell viability, Cell Titer Glo 2.0 assay; conditions: read-out: Viability SHSY5Y.3 GI50
Method in brief: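 SH-SY5Y neuroblastoma cells are exposed to test compounds for 72 hours at 37 °C and 5% CO2, with final DMSO held at 0.1%. Cell viability is then measured with the CellTiter-Glo 2.0 assay.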

HTT mRNA [4] = test: Gene panel canonical junction qPCR assay, decrease in CJ mRNA, Table 3
Method in brief: (§1)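 A673 cells were plated, left to adhere for 24 h, then dosed; K562 cells were plated in 96- or 384-well format and dosed directly. Both were incubated 24 h at 37 °C with an 11-point 3-fold series (top 10 uM final). Canonical junction mRNA was then read by cDNA synthesis and qPCR.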

MYB mRNA [5] = test: as above
Method in brief: as §1

[6] = Table 2A (THP), AJ mRNA increase, read-out: HTT AJ (increase in alternative junction mRNA, AC50)
[7] = Table 2A (THP), CJ mRNA decrease, read-out: HTT CJ (decrease in canonical junction mRNA, IC50)
[8] = Table 2A (THP), AJ mRNA increase, read-out: MYB AJ (increase in alternative junction mRNA, AC50)
[9] = Table 2A (THP), CJ mRNA decrease, read-out: MYB CJ (decrease in canonical junction mRNA, IC50)
[10] = decrease in canonical junction (CJ) mRNA, gene panel qPCR, Table 3
[11] = Table 2A, THP, HTT alternative junction (AJ) mRNA, read-out: HTT AJ (AC50, increase in alternative junction mRNA)
[12] = Table 2A, THP, HTT canonical junction (CJ) mRNA, read-out: HTT CJ (IC50, decrease in canonical junction mRNA)
[13] = Table 2A, THP, MYB alternative junction (AJ) mRNA, read-out: MYB AJ (AC50, increase in alternative junction mRNA)
[14] = Table 2A, THP, MYB canonical junction (CJ) mRNA, read-out: MYB CJ (IC50, decrease in canonical junction mRNA)
[15] = decrease in CJ mRNA levels, canonical junction qPCR, gene panel

SMILES	IC50 (HTT mRNA [1]; [7]) [nM]	IC50 (MYB mRNA [2]; [9]) [nM]	GI50 [3] [nM]	IC50 (HTT mRNA [4]; [10]) [nM]	IC50 (MYB mRNA [5]; [10]) [nM]	IC50 (HTT mRNA [1]; [12]) [nM]	IC50 (MYB mRNA [2]; [14]) [nM]	IC50 (HTT mRNA [4]; [15]) [nM]	IC50 (MYB mRNA [5]; [15]) [nM]	AC50 (HTT mRNA [1]; [6]) [nM]	AC50 (MYB mRNA [2]; [8]) [nM]	AC50 (HTT mRNA [1]; [11]) [nM]	AC50 (MYB mRNA [2]; [13]) [nM]
CCNC1CCN(c2cc(F)c(C(=O)Nc3cn4cc(C)nc(C)c4c3F)c3nn(C)cc23)CC1 [Compound 468, 4-[4-(ethylamino)-1-piperidyl]-6-fluoro-N-(8-fluoro-1,3-dimethyl-pyrrolo[1,2-a]pyrazin-7-yl)-2-methyl-indazole-7-carboxamide]	> 10000	< 100	1000 to 10000	> 10000	< 100	–	–	–	–	> 10000	< 100	–	–
Cc1cn2cc(NC(=O)c3ccc(N4CCC(NC5CC5)CC4)c4cc(CF)nn34)nc2c(C)n1 [Compound 617, 4-[4-(cyclopropylamino)-1-piperidyl]-N-(6,8-dimethylimidazo[1,2-a]pyrazin-2-yl)-2-(fluoromethyl)-pyrazolo[1,5-a]pyridine-7-carboxamide]	–	–	1000 to 10000	–	–	> 10000	1000 to 10000	> 10000	1000 to 10000	–	–	> 10000	100 to 1000
COc1cc(NC(=O)c2c(F)cc(N3CCC(NC4CC4)CC3)c3cn(C)nc23)cc2cn(C)nc12 [Compound 423, 4-[4-(cyclopropylamino)-1-piperidyl]-6-fluoro-N-(7-methoxy-2-methyl-indazol-5-yl)-2-methyl-indazole-7-carboxamide]	1000 to 10000	100 to 1000	1000 to 10000	1000 to 10000	100 to 1000	–	–	–	–	1000 to 10000	100 to 1000	–	–
COc1nc2nn(C)cc2cc1NC(=O)c1c(F)cc(N2CCC(NC3CC3)CC2)c2cn(C)nc12 [Compound 431, 4-[4-(cyclopropylamino)-1-piperidyl]-6-fluoro-N-(6-methoxy-2-methyl-pyrazolo-[3,4-b]pyridin-5-yl)-2-methyl-indazole-7-carboxamide]	100 to 1000	< 100	100 to 1000	100 to 1000	< 100	–	–	–	–	100 to 1000	< 100	–	–
COc1cc2nn(C)cc2cc1NC(=O)c1ccc(N2CCNC(C)C2)c2cn(C)nc12 (stereo not shown) [Compound 568]	100 to 1000	100 to 1000	1000 to 10000	100 to 1000	100 to 1000	–	–	–	–	1000 to 10000	100 to 1000	–	–
Cc1cn2cc(NC(=O)c3ccc(N4CCC(NC5CC5)CC4)c4cn(C)nc34)nc2c(-c2cnoc2)n1 [Compound 462, 4-[4-(cyclopropylamino)-1-piperidyl]-N-(8-isoxazol-4-yl-6-methyl-imidazo[1,2-a]-pyrazin-2-yl)-2-methyl-indazole-7-carboxamide]	> 10000	> 10000	1000 to 10000	> 10000	> 10000	–	–	–	–	> 10000	> 10000	–	–
CCNC1CC2(C1)CN(c1ccc(C(=O)Nc3cn4cc(C)nc(C)c4n3)c3nn(C)cc13)C2 [Compound 576]	> 10000	> 10000	1000 to 10000	> 10000	> 10000	–	–	–	–	> 10000	> 10000	–	–
Cc1cn2cc(NC(=O)c3ccc(N4C[C@@H](C)N[C@@H](C)C4)c4c3OC(C)(C)O4)cc(F)c2n1 [Compound 656, 7-[(3S,5R)-3,5-dimethylpiperazin-1-yl]-N-(8-fluoro-2-methyl-imidazo[1,2-a]-pyridin-6-yl)-2,2-dimethyl-1,3-benzodioxole-4-carboxamide]	–	–	> 10000	–	–	> 10000	> 10000	> 10000	> 10000	–	–	> 10000	> 10000
COc1cc2nn(C)cc2cc1NC(=O)c1c(C2CC2)cc(N2CCC(NC3CC3)CC2)c2cn(C)nc12 [Compound 466, 6-cyclopropyl-4-[4-(cyclopropylamino)-1-piperidyl]-N-(6-methoxy-2-methyl-indazol-5-yl)-2-methyl-indazole-7-carboxamide]	> 10000	> 10000	1000 to 10000	> 10000	> 10000	–	–	–	–	> 10000	> 10000	–	–
COc1cc2c(N3CCC(NC4CC4)CC3)ccc(C(=O)Nc3cc4cn(C)nc4cc3OC)n2n1 [Compound 632, 4-[4-(cyclopropylamino)-1-piperidyl]-2-methoxy-N-(6-methoxy-2-methyl-indazol-5-yl) pyrazolo[1,5-a]pyridine-7-carboxamide]	–	–	1000 to 10000	–	–	100 to 1000	< 100	100 to 1000	< 100	–	–	100 to 1000	< 100
COc1nc2c(N3CCC(NC4CC4)CC3)ccc(C(=O)Nc3cc(F)c4nc(C)cn4c3)c2o1 [Compound 666, 4-[4-(cyclopropylamino)-1-piperidyl]-N-(8-fluoro-2-methyl-imidazo[1,2-a]-pyridin-6-yl)-2-methoxy-1,3-benzoxazole-7-carboxamide]	–	–	1000 to 10000	–	–	1000 to 10000	100 to 1000	1000 to 10000	100 to 1000	–	–	1000 to 10000	100 to 1000

Second part, led by results:

IC50 (HTT mRNA [1]; [7]) [nM]	IC50 (MYB mRNA [2]; [9]) [nM]	GI50 [3] [nM]	IC50 (HTT mRNA [4]; [10]) [nM]	IC50 (MYB mRNA [5]; [10]) [nM]	IC50 (HTT mRNA [1]; [12]) [nM]	IC50 (MYB mRNA [2]; [14]) [nM]	IC50 (HTT mRNA [4]; [15]) [nM]	IC50 (MYB mRNA [5]; [15]) [nM]	SMILES	AC50 (HTT mRNA [1]; [6]) [nM]	AC50 (MYB mRNA [2]; [8]) [nM]	AC50 (HTT mRNA [1]; [11]) [nM]	AC50 (MYB mRNA [2]; [13]) [nM]
–	–	> 10000	–	–	> 10000	1000 to 10000	> 10000	1000 to 10000	COc1nc2c(N3CCC(NC4CC4)CC3)ccc(C(=O)Nc3cn4cc(C)nc(C)c4n3)c2o1 [Compound 680, 4-(4-(cyclopropylamino)-piperidin-1-yl)-N-(6,8-dimethylimidazo-[1,2-a]-pyrazin-2-yl)-2-methoxy-benzo[d]-oxazole-7-carboxamide]	–	–	> 10000	1000 to 10000
> 10000	> 10000	1000 to 10000	> 10000	> 10000	–	–	–	–	CCNC1CCN(c2ccc(C(=O)Nc3cc(Oc4ccccc4Cl)c4nc(C)cn4c3)c3nn(C)cc23)CC1 [Compound 313, N-[8-(2-chlorophenoxy)-2-methylimidazo-[1,2-a]pyridin-6-yl]-4-[4-(ethylamino)-1-piperidyl]-2-methyl-indazole-7-carboxamide]	> 10000	1000 to 10000	–	–
–	–	1000 to 10000	1000 to 10000	> 10000	1000 to 10000	> 10000	–	–	CCNC1CCN(c2ccc(C(=O)Nc3cn4cc(C)nc(C)c4n3)c3nn(C)cc23)CC1C (stereo not shown) [Compound 604]	–	–	> 10000	1000 to 10000
100 to 1000	< 100	< 100	100 to 1000	< 100	–	–	–	–	COc1cn2nc(C)cc2cc1NC(=O)c1c(F)cc(N2CCC(NC3CC3)CC2)c2cn(C)nc12 [Compound 432, 4-[4-(cyclopropylamino)-1-piperidyl]-6-fluoro-N-(6-methoxy-2-methyl-pyrazolo[1,5-a]pyridin-5-yl)-2-methyl-indazole-7-carboxamide]	100 to 1000	< 100	–	–
–	–	100 to 1000	–	–	100 to 1000	< 100	100 to 1000	< 100	C[C@H]1CN(c2ccc(C(=O)Nc3cc(F)c4nn(C)cc4c3)c3nc(N)sc23)C[C@H](C)N1 [Compound 700, 2-amino-7-[(3S,5S)-3,5-dimethylpiperazin-1-yl]-N-(7-fluoro-2-methyl-indazol-5-yl)-1,3-benzothiazole-4-carboxamide]	–	–	100 to 1000	< 100
–	–	1000 to 10000	–	–	1000 to 10000	1000 to 10000	1000 to 10000	1000 to 10000	CNS(=O)(=O)CCc1nc(C)cn2cc(NC(=O)c3ccc(N4CCC(NC5CC5)CC4)c4cn(C)nc34)nc12 [Compound 832]	–	–	1000 to 10000	1000 to 10000
–	–	100 to 1000	–	–	1000 to 10000	< 100	1000 to 10000	< 100	COc1nc2c(C(=O)Nc3cc(F)c4nn(C)cc4c3)ccc(N3C[C@@H](C)N(C)[C@@H](C)C3)c2s1 [Compound 744, N-(7-fluoro-2-methyl-indazol-5-yl)-2-methoxy-7-[(3R,5S)-3,4,5-trimethylpiperazin-1-yl]-1,3-benzothiazole-4-carboxamide]	–	–	100 to 1000	< 100
–	–	> 10000	–	–	> 10000	> 10000	> 10000	> 10000	Cc1cn2cc(NC(=O)c3ccc(N4CCC(NC5CC5)CC4)c4cn(C)nc34)nc2c(CN)n1 [Compound 734, N-(8-(aminomethyl)-6-methylimidazo[1,2-a]pyrazin-2-yl)-4-(4-(cyclopropylamino)piperidin-1-yl)-2-methyl-2H-indazole-7-carboxamide bis(2,2,2-trifluoroacetate)]	–	–	> 10000	> 10000

From patent US20260285853A1, “COMPOUNDS AND METHODS FOR MODULATING SPLICING” (REMIX THERAPEUTICS INC., priority 2023, published 2026)
